Data as given in PubChem BioAssay (NCI).
Values joined by “and” are separate entries in the source; they are usually repeats but may differ in a detail not shown here. Equal entries are not always repeated.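 Protocol summary: plate cells (96-well), add compound at 5 concentrations, incubate 48 h, interpolate endpoints linearly. GI50 is the concentration that inhibits growth by half. TGI: total growth inhibition.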 *1 amine or outer side, *2 acyl side, *3 side chain or, on linkers, in order; H or OH if unused. Where a SMILES comes first, the peptide text is derived from it. Bridges are numbered along the chain shown (N, C = ends). Roman numbers before positions name the chains, in order. [ ]: non-standard residue; d: D form. Actinocin(9to1) = Cc1c2oc3c(C)ccc(C(=O)[*:1])c3nc-2c(C(=O)[*:2])c(N)c1=O; NMeV = CN[CH](C(=O)O)C(C)C; Sar = CNCC(=O)O

How the values were obtained:
Assay in all cases: DTP human tumour cell line panel, 48 h
[1] = test system: LOX IMVI melanoma
[2] = test system: EKVX NSCLC
[3] = test system: OVCAR-5 ovarian
[4] = test system: ACHN renal
[5] = test system: RPMI-8226 leukemia
[6] = test system: HCT-15 colon
[7] = test system: SK-MEL-5 melanoma
[8] = test system: UACC-257 melanoma
[9] = test system: U251 CNS
[10] = test system: UACC-62 melanoma

Row | Compound | GI50 [1] | TGI [1] | GI50 [2] [µM] | TGI [2] | GI50 [3] [µM] | TGI [3] | GI50 [4] [µM] | TGI [4] | GI50 [5] | TGI [5] | GI50 [6] [µM] | TGI [6] | GI50 [7] | TGI [7] | GI50 [8] | TGI [8] | GI50 [9] [µM] | TGI [9] | GI50 [10] [µM] | TGI [10]
1 | C=C1C(=O)O[C@H]2[C@H]1CC/C(Cn1cc(Cc3c[nH]c4ccccc34)nn1)=C\CC[C@@]1(C)O[C@@H]21 | 1.55 µM | 3.03 µM | 1.84 | 3.98 µM | 1.8 | 3.48 µM | 1.47 | 2.8 µM | 2.11 µM | 5.35 µM | 1.59 | 3.35 µM | 1.89 µM | 3.61 µM | 2.11 µM | 4.45 µM | 1.89 | 3.63 µM | 1.66 | 3.13 µM
2 | O=c1cc(-c2ccccc2)oc2ccc(OC/C(=N/O)c3ccc(F)cc3)cc12 | 5.46 µM | 12.3 µM | 1.97 | 15.8 µM | 16.4 | > 50 µM | 10.3 | > 50 µM | 3 µM | 14.9 µM | 2.99 | 14.5 µM | 1.61 µM | 6.23 µM | 9.77 µM | 38.2 µM | 3.03 | 43.7 µM | 5.5 | 22.8 µM
3 | COc1cccc(Sc2ccc([N+](=O)[O-])c3no[n+]([O-])c23)c1 | 3.38 µM | 11.5 µM | 14.8 | 39.5 µM | 8.31 | 20.2 µM | 2.84 | 8.78 µM | 3.67 µM | 21 µM | 7.82 | 23.1 µM | 15.1 µM | 29.5 µM | 14 µM | 29.9 µM | 13.1 | 30.3 µM | 13.7 | 36 µM
4 | CCN1C(=O)N(CC)C2C1NN=c1s/c(=C\c3cccs3)c(=O)n12 (centres undefined) | 0.139 µM | > 100 µM | – | > 100 µM | 0.445 | > 100 µM | 0.253 | > 100 µM | 0.412 µM | > 100 µM | 0.0575 | > 100 µM | 0.218 µM | 4.26 µM | > 100 µM | > 100 µM | 0.245 | > 100 µM | – | > 100 µM
5 | Cc1c2oc3c(C)ccc(C(=O)OC(C)C4NC(=O)C(C(C)C)N(C)C(=O)CN(C)C(=O)C5CCCN5C(=O)C(C(C)C)NC4=O)c3nc-2c(C(=O)OC(C)C2NC(=O)C(C(C)C)N(C)C(=O)CN(C)C(=O)C3CCCN3C(=O)C(C(C)C)NC2=O)c(N)c1=O (centres undefined) (I: cyclo([Sar][NMeV]TVP) / II: cyclo([Sar][NMeV]TVP); linker I:3-II:3 via Actinocin(9to1); configuration not given here) | < 0.01 µM | > 35 µM | 0.022 | – | 0.0114 | 21.6 µM | < 0.01 | 4.39 µM | < 0.01 µM | 0.0582 µM | 0.0396 | > 100 µM | < 0.01 µM | 0.0169 µM | < 0.01 µM | – | < 0.01 | – | < 0.01 | 0.0125 µM
6 | Clc1ccccc1[C@@H]1C[C@@H]2Cc3cc(Br)c4ccccc4c3N1O2 | 6.28 µM | > 100 µM | 23.3 | > 100 µM | 16.9 | > 100 µM | 5.62 | > 100 µM | 4.94 µM | > 100 µM | 4.39 | > 100 µM | 2.81 µM | 15.2 µM | 3.77 µM | > 100 µM | 3.65 | > 100 µM | 4.29 | > 100 µM
7 | O=C(O)CNc1ccc(Cl)c(Cl)c1 | – | > 100 µM | – | 64.8 µM | – | > 100 µM | – | 53 µM | – | 55.2 µM | – | 95.3 µM | – | 87.9 µM | – | 96.3 µM | – | > 100 µM | – | 90.4 µM
8 | COc1cc(OC)cc(-c2nc3sccn3c2/C=N/N=C(N)N)c1 | 6.49 µM | 12.8 µM | 8.2 | 15.9 µM | 7.25 | 13.8 µM | 8.58 | 17.5 µM | 10.7 µM | 21.6 µM | 8.1 | 14.9 µM | 8.34 µM | 15.2 µM | 7.74 µM | 16.1 µM | 5.2 | 11.1 µM | 8.03 | 14.8 µM
9 | CCN(CC)CCC(=O)OC1C(C)=CC(C)C(=O)CC(C(C)CC2CCC(O)C(OC)C2)OC(=O)C2CCCCN2C(=O)C(=O)[C@@]2(O)OC(CCC2C)CC(OC)\C(C)=C/C=C/C=C/C(C)CC(C)C(=O)C1OC (some centres undefined) | – | 19.2 µM | – | 17.1 µM | – | 25.6 µM | – | 22.2 µM | – | 43.2 µM | – | 20.6 µM | – | 17.2 µM | – | 27.1 µM | – | 23.1 µM | – | 19.8 µM
10 | COc1cc(OC)c(/C=C/C(=O)c2ccc(Nc3ncnc4ccccc34)cc2)c(OC)c1 | 1.06 µM | 6.52 µM | 1.69 | 8.99 µM | 1.88 | 5.32 µM | 1.83 | 17.7 µM | 0.687 µM | – | 0.798 | 24.8 µM | 0.426 µM | 1.98 µM | 1.24 µM | 3.89 µM | 0.686 | 2.73 µM | 0.599 | 2.18 µM
11 | Cc1ccc2[nH]c3c(c2c1)N=c1ccccc1=NO3 | 97.8 µM | > 100 µM | 26.2 | > 100 µM | > 100 | > 100 µM | 32.3 | > 100 µM | > 100 µM | > 100 µM | > 100 | > 100 µM | 40.9 µM | > 100 µM | 70.6 µM | > 100 µM | 53.7 | > 100 µM | 36.5 | > 100 µM
12 | COC1CC(C)C(OC)c2cc(O)cc(c2O)NC(=O)/C(C)=C/C=C\C(C)C(OC(N)=O)/C(C)=C\C(C)C1OC (centres undefined) | 0.165 µM and 0.255 µM | 1.74 µM and 6.91 µM | 7.95 | 25 µM and 22.9 µM | 0.549 | 20.5 µM and 11 µM | 6.71 | 12.6 µM and 13.2 µM | 0.174 µM and 0.383 µM | 32.4 µM and 5.93 µM | 4.91 | 11.9 µM and 12.7 µM | 0.691 µM and 0.599 µM | 18.1 µM and 5.29 µM | 0.561 µM and 0.693 µM | 10.3 µM and 10.5 µM | 0.614 | 16.1 µM and 23.6 µM | 0.162 | 8.89 µM and 5.83 µM
13 | O=C(O)C(Br)C(Br)C(=O)O (centres undefined) | – | > 100 µM | – | > 100 µM | – | > 100 µM | – | > 100 µM | – | > 100 µM | – | > 100 µM | – | > 100 µM | – | > 100 µM | – | > 100 µM | – | > 100 µM
